According to article PMC4948680 (European journal of pharmaceutical sciences : official …, 2016):

Assays:
[1] = parameters: species or system mice
Experimental: Clearance kinetics in each organ was determined by exponential curve fitting. The time-integrated activity concentration (TIAC) was obtained by integration of this exponential curve folded with the decay curve of ^111In and ^177Lu.Mouse dosimetry was calculated for both ^177Lu and ^111In using the TIAC and the 25 g RADAR mouse absorbed dose rates per unit activity S for each source and target organ combination ([Keenan et al., 2010]; [Konijnenberg et al., 2014]).

[2] = test system: Wistar Hannover RccHan rats; test: Extended acute single dose intravenous (bolus) toxicity study in rats; type: in vivo
From the text: For acute intravenous toxicity studies Crl:NMRI (SPF) female mice provided by Charles River Laboratories (Germany) of 7–9 weeks of age and a body weight of 26–33 g were used. For extended acute single dose toxicity study in rats, 45 female and 45 male Wistar Hannover RccHan™ rats were used purchased from Harlan Laboratories, B.V. (The Netherlands). Animals were […] of age and the body weights were 195–235 g for males and 164–199 g for females. For in vivo stability tests and biodistribution/dosimetry studies healthy male Swiss albino mice from NCSR “Demokritos” Animal House were used, of 8–10 weeks of age and a body weight of 20–25 g. For the CCK2R-expressing tumour model, male SCID mice from NCSR “Demokritos” Animal House were used, of 6 weeks of age on arrival day and a body weight of 20 ± 2 g.
The study was designed according to the microdosing concept as described in ICH guideline M3 (R2) (“Note for guidance on non-clinical safety studies for the conduct of human clinical trials and marketing authorization for pharmaceuticals” (CPMP/ICH/286/95)). In brief, 90 rats were distributed into three dose groups, each containing fifteen animals per sex (Table 1). The animals from Group 1 received only PBS, serving as controls, while groups II and III received the CP04 solution by single intravenous (bolus) injection at a low (89 μg/kg body weight: Group 2) and a high dose (890 μg/kg body weight: Group 3). A 24-h observation period followed (Allocation A), except for five animals per sex from each group for which treatment was followed by an additional 14-day treatment-free recovery period (Allocation B).
At day 2 blood samples were withdrawn from Allocation-A animals for haematology, clinical biochemistry and samples for urinary analyses were collected. These animals were necropsied on the same day and histological examinations were performed on an extended set of organs (adrenal glands, kidneys, liver, pancreas, sternum (including bone marrow), small intestine, stomach, thyroid/parathyroid glands and gross lesions). The animals from Allocation-B remained untreated for the following 14 days, but on day 15 underwent the same procedure described above (Extended Acute Intravenous (Bolus) Toxicity Study in Rats, Harlan Study #S47364).

[3] = test system: CCK2R; parameters: method as in Aloj et al., 2011; Kolenc Peitl et al., 2015; conditions: ref Aloj et al., 2011; Kolenc Peitl et al., 2015; cited from earlier work
[4] = test system: Crl:NMRI (SPF) female mice; test: Acute intravenous toxicity of CP04 in mice; type: in vivo; conditions: 178.5 μg/kg body weight iv
From the text: For acute intravenous toxicity studies Crl:NMRI (SPF) female mice provided by Charles River Laboratories (Germany) of 7–9 weeks of age and a body weight of 26–33 g were used. For extended acute single dose toxicity study in rats, 45 female and 45 male Wistar Hannover RccHan™ rats were used purchased from Harlan Laboratories, B.V. (The Netherlands). Animals were […] of age and the body weights were 195–235 g for males and 164–199 g for females. For in vivo stability tests and biodistribution/dosimetry studies healthy male Swiss albino mice from NCSR “Demokritos” Animal House were used, of 8–10 weeks of age and a body weight of 20–25 g. […]
The CP04 precursor was dissolved in phosphate buffered saline (PBS pH 7.4) and was administered at a dose of 178.5 μg/kg body weight and a dose volume of 5 mL/kg body weight into the caudal vein of two groups of three mice (Acute Intravenous Toxicity Study in Mice, Harlan Laboratories Study #D04314). […] Mortality, viability and clinical signs were recorded. […] Mortality/viability was recorded within the first 30 min and approximately 1, 2, 3 and 5 h after administration on test day 1 (with the clinical signs) and twice daily during days 2–15. Body weights were recorded on test day 1 (prior to administration) and on test days 8 and 15. […]

SMILES | Absorbed dose per injected activity, Bone [1] [mGy/MBq] | Absorbed dose per injected activity, Kidneys [1] [mGy/MBq] | Absorbed dose per injected activity, Large intestine [1] [mGy/MBq] | Absorbed dose per injected activity, Liver [1] [mGy/MBq] | Absorbed dose per injected activity, Lungs [1] [mGy/MBq] | Absorbed dose per injected activity, Pancreas [1] [mGy/MBq] | Absorbed dose per injected activity, Small intestine [1] [mGy/MBq] | Absorbed dose per injected activity, Spleen [1] [mGy/MBq] | Absorbed dose per injected activity, Stomach wall [1] [mGy/MBq] | Absorbed dose per injected activity, Total body [1] [mGy/MBq] | maximum recommended starting dose (MRSD) for a first-in-human clinical trial ([2]; HED with safety factor of 10) [µg/kg] | human equivalent dose (HED) ([2]; NOAEL × rat km/human km = 89 μg/kg × 6/37) [µg/kg] | reticulocyte count ([2]; male rats, 14 days after single bolus 890 μg/kg body weight) | mean food consumption and body weight gain ([2]; rats, single bolus 890 μg/kg body weight) | NOAEL initially established, based on pathological examination ([2]; rats, single intravenous bolus) [μg/kg body weight] | no-observed-adverse-effect-level (NOAEL) ([2]; rats, single intravenous bolus, eventually set value) [μg/kg body weight] | survival and clinical signs ([2]; rats, single iv bolus 89 or 890 μg/kg, 24-h study period) | CCK2R-affinity, IC50 [3] | macroscopic findings at necropsy ([4]; female mice) | survival and systemic signs of toxicity ([4]; two groups of three female mice, 14 days observation)
CSCC[C@H](NC(=O)[C@H](Cc1c[nH]c2ccccc12)NC(=O)CNC(=O)[C@H](Cc1ccc(O)cc1)NC(=O)[C@H](C)NC(=O)[C@@H](CCC(=O)O)NC(=O)[C@@H](CCC(=O)O)NC(=O)[C@@H](CCC(=O)O)NC(=O)[C@@H](CCC(=O)O)NC(=O)[C@@H](CCC(=O)O)NC(=O)[C@@H](CCC(=O)O)NC(=O)CN1CCN(CC(=O)O)CCN(CC(=O)O)CCN(CC(=O)O)CC1)C(=O)N[C@@H](CC(=O)O)C(=O)N[C@@H](Cc1ccccc1)C(N)=O [^177Lu-CP04, metal not drawn] | 51 | 400 | 36 | 7 | 12 | 16 | 36 | 9 | 86 | 19 |  |  |  |  |  |  |  |  |  | 
CSCC[C@H](NC(=O)[C@H](Cc1c[nH]c2ccccc12)NC(=O)CNC(=O)[C@H](Cc1ccc(O)cc1)NC(=O)[C@H](C)NC(=O)[C@@H](CCC(=O)O)NC(=O)[C@@H](CCC(=O)O)NC(=O)[C@@H](CCC(=O)O)NC(=O)[C@@H](CCC(=O)O)NC(=O)[C@@H](CCC(=O)O)NC(=O)[C@@H](CCC(=O)O)NC(=O)CN1CCN(CC(=O)O)CCN(CC(=O)O)CCN(CC(=O)O)CC1)C(=O)N[C@@H](CC(=O)O)C(=O)N[C@@H](Cc1ccccc1)C(N)=O [CP04, DOTA-(DGlu)6-Ala-Tyr-Gly-Trp-Met-Asp-Phe-NH2] |  |  |  |  |  |  |  |  |  |  | 1.4 | 14.4 | marked decrease | moderate decrease | 890 | 89 | All animals survived the 24-h study period with no clinical signs being recorded | lower nM range | No macroscopic findings | All animals survived until the end of the study with no systemic signs of toxicity evident
